Test results: patent US20090018111A1, “Novel Antimicrobial Medicament” (priority 2004, published 2009)
Where two headings read alike, the source gives them in different places.

What was measured:
Experiment in all cases: Sensitivity test (agar dilution)
[1] = tested on: S. aureus SP-7928 (homo-MRSA); assay type: cell-based, Staphylococcus aureus; conditions: Staphylococcus aureus, MRSA, S. aureus SP-7928 (homo-MRSA)
How it was run: (§1)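 Agar dilution on Mueller Hinton agar per the Japan Chemotherapeutic Society method, with two-fold serial dilutions of single drugs or combinations dissolved in water. Overnight 37° C cultures were suspended in BSG at ~10^6 CFU/ml and ~5 μl spotted.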

S. epidermidis IAM1296 = assay type: cell-based, Staphylococcus epidermidis; conditions: Staphylococcus epidermidis, S. epidermidis IAM1296
How it was run: as §1

M. luteus ATCC9341 = assay type: cell-based, Micrococcus luteus; conditions: Micrococcus luteus, M. luteus ATCC9341
How it was run: as §1

Str. pyogenes Cook = assay type: cell-based, Streptococcus pyogenes; conditions: Streptococcus pyogenes, Str. pyogenes Cook
How it was run: as §1

E. faecalis ATCC19433 = assay type: cell-based, Enterococcus faecalis; conditions: Enterococcus faecalis, E. faecalis ATCC19433
How it was run: as §1

E. coli ML1410 = assay type: cell-based, Escherichia coli; conditions: Escherichia coli, E. coli ML1410
How it was run: as §1

E. coli NIHJ JC-2 = assay type: cell-based, Escherichia coli; conditions: Escherichia coli, E. coli NIHJ JC-2
How it was run: as §1

K. pneumoniae ATCC10031 = assay type: cell-based, Klebsiella pneumoniae; conditions: Klebsiella pneumoniae, K. pneumoniae ATCC10031
How it was run: as §1

P. vulgaris GN7919 = assay type: cell-based, Proteus vulgaris; conditions: Proteus vulgaris, P. vulgaris GN7919
How it was run: as §1

E. cloacae GN7471 = assay type: cell-based, Enterobacter cloacae; conditions: Enterobacter cloacae, E. cloacae GN7471
How it was run: as §1

P. aeruginosa IFO3451 = assay type: cell-based, Pseudomonas aeruginosa; conditions: Pseudomonas aeruginosa, P. aeruginosa IFO3451
How it was run: as §1

P. aeruginosa TL-2666 = assay type: cell-based, Pseudomonas aeruginosa; conditions: Pseudomonas aeruginosa, P. aeruginosa TL-2666
How it was run: as §1

P. aeruginosa TL-2667 = assay type: cell-based, Pseudomonas aeruginosa; conditions: Pseudomonas aeruginosa, P. aeruginosa TL-2667
How it was run: as §1

[2] = Concomitant (BIPM:SM = 1:1), read-out: MIC concomitant
[3] = drug alone, read-out: MIC alone

Structure (SMILES): C[C@@H](O)[C@H]1C(=O)N2C(C(=O)[O-])=C(SC3Cn4cnc[n+]4C3)[C@H](C)[C@H]12 (some centres unmarked) [BIPM, biapenem]
- MIC [1, 2]: 2 µg/mL
- MIC [1, 3]: > 32 µg/mL
- MIC (S. epidermidis IAM1296; IAM1296, Concomitant (BIPM:SM = 1:1), read-out: MIC concomitant): 0.031 µg/mL
- MIC (S. epidermidis IAM1296; IAM1296, drug alone, read-out: MIC alone): 1 µg/mL
- MIC (M. luteus ATCC9341; ATCC9341, Concomitant (BIPM:SM = 1:1), read-out: MIC concomitant): 0.004 µg/mL
- MIC (M. luteus ATCC9341; ATCC9341, drug alone, read-out: MIC alone): 0.125 µg/mL
- MIC (Str. pyogenes Cook; [2]): 0.004 µg/mL
- MIC (Str. pyogenes Cook; [3]): 0.008 µg/mL
- MIC (E. faecalis ATCC19433; ATCC19433, Concomitant (BIPM:SM = 1:1), read-out: MIC concomitant): 1 µg/mL
- MIC (E. faecalis ATCC19433; ATCC19433, drug alone, read-out: MIC alone): 4 µg/mL
- MIC (E. coli ML1410; ML1410, Concomitant (BIPM:SM = 1:1), read-out: MIC concomitant): 0.063 µg/mL
- MIC (E. coli ML1410; ML1410, drug alone, read-out: MIC alone): 0.25 µg/mL
- MIC (E. coli NIHJ JC-2; NIHJJC2, Concomitant (BIPM:SM = 1:1), read-out: MIC concomitant): 0.031 µg/mL
- MIC (E. coli NIHJ JC-2; NIHJJC2, drug alone, read-out: MIC alone): 0.031 µg/mL
- MIC (K. pneumoniae ATCC10031; ATCC10031, Concomitant (BIPM:SM = 1:1), read-out: MIC concomitant): 0.016 µg/mL
- MIC (K. pneumoniae ATCC10031; ATCC10031, drug alone, read-out: MIC alone): 0.031 µg/mL
- MIC (P. vulgaris GN7919; GN7919, Concomitant (BIPM:SM = 1:1), read-out: MIC concomitant): 0.25 µg/mL
- MIC (P. vulgaris GN7919; GN7919, drug alone, read-out: MIC alone): 0.5 µg/mL
- MIC (E. cloacae GN7471; GN7471, Concomitant (BIPM:SM = 1:1), read-out: MIC concomitant): 0.063 µg/mL
- MIC (E. cloacae GN7471; GN7471, drug alone, read-out: MIC alone): 0.063 µg/mL
- MIC (P. aeruginosa IFO3451; IFO3451, Concomitant (BIPM:SM = 1:1), read-out: MIC concomitant): 0.25 µg/mL
- MIC (P. aeruginosa IFO3451; IFO3451, drug alone, read-out: MIC alone): 0.25 µg/mL
- MIC (P. aeruginosa TL-2666; TL2666, Concomitant (BIPM:SM = 1:1), read-out: MIC concomitant): 1 µg/mL
- MIC (P. aeruginosa TL-2666; TL2666, drug alone, read-out: MIC alone): 1 µg/mL
- MIC (P. aeruginosa TL-2667; TL2667, Concomitant (BIPM:SM = 1:1), read-out: MIC concomitant): 4 µg/mL
- MIC (P. aeruginosa TL-2667; TL2667, drug alone, read-out: MIC alone): 8 µg/mL
